Measured values: PubChem BioAssay AID330 (DTP/NCI, 2004)
Values joined by “and” are separate entries in the source; they are usually repeats but may differ in a detail not shown here. Identical values can stand only once. Inconclusive results and toxic doses are left out.

System: P388 leukemia ip, CD2F1 mice, survival T/C
Assay: NCI In Vivo Anticancer Drug Screen. Data for tumor model P388 Leukemia (intraperitoneal) in CD2F1 (CDF1) mice
Conditions: endpoint: median survival time, higher = longer survival
In short: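 Mice carrying the transplanted tumor received test compound or vehicle. Survival was recorded in each group, and the value is the treated-group measurement divided by that of the vehicle-treated control group.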

[1] = dose: 50.0 mg/kg/injection, schedule: Q01DX009 (ip), vehicle: saline
[2] = dose: 100.0 mg/kg/injection, schedule: Q01DX009 (ip), vehicle: saline
[3] = dose: 200.0 mg/kg/injection, schedule: Q01DX009 (ip), vehicle: saline
[4] = dose: 100.0 mg/kg/injection, schedule: Q01DX001 (ip), vehicle: Klucel (hydroxypropylcellulose) (HPC)
[5] = dose: 200.0 mg/kg/injection, schedule: Q01DX001 (ip), vehicle: Klucel (hydroxypropylcellulose) (HPC)
[6] = dose: 400.0 mg/kg/injection, schedule: Q01DX001 (ip), vehicle: Klucel (hydroxypropylcellulose) (HPC)
[7] = dose: 50.0 mg/kg/injection, schedule: Q01DX005 (ip), vehicle: saline with Tween-80
[8] = dose: 100.0 mg/kg/injection, schedule: Q01DX005 (ip), vehicle: saline with Tween-80
[9] = dose: 200.0 mg/kg/injection, schedule: Q01DX005 (ip), vehicle: saline with Tween-80
[10] = dose: 50.0 mg/kg/injection, schedule: Q01DX005 (ip), vehicle: Klucel (hydroxypropylcellulose) (HPC)
[11] = dose: 100.0 mg/kg/injection, schedule: Q01DX005 (ip), vehicle: Klucel (hydroxypropylcellulose) (HPC)
[12] = dose: 60.0 mg/kg/injection, schedule: Q01DX005 (ip), vehicle: saline with Tween-80
[13] = dose: 120.0 mg/kg/injection, schedule: Q01DX005 (ip), vehicle: saline with Tween-80
[14] = dose: 240.0 mg/kg/injection, schedule: Q01DX005 (ip), vehicle: saline with Tween-80
[15] = dose: 50.0 mg/kg/injection, schedule: Q01DX009 (ip), vehicle: saline with Tween-80
[16] = dose: 100.0 mg/kg/injection, schedule: Q01DX009 (ip), vehicle: saline with Tween-80
[17] = dose: 200.0 mg/kg/injection, schedule: Q01DX009 (ip), vehicle: saline with Tween-80
[18] = dose: 100.0 mg/kg/injection, schedule: Q04DX003 (ip), vehicle: saline
[19] = dose: 200.0 mg/kg/injection, schedule: Q04DX003 (ip), vehicle: saline
[20] = dose: 400.0 mg/kg/injection, schedule: Q04DX003 (ip), vehicle: saline

Cc1ccc(Cl)c([N+](=O)[O-])c1N
T/C (dose: 100.0 mg/kg/injection, schedule: Q04DX003 (ip), vehicle: saline with Tween-80): 104 % of control
T/C (dose: 200.0 mg/kg/injection, schedule: Q04DX003 (ip), vehicle: saline with Tween-80): 104 % of control

O=C1OCC(Cc2ccc3c(c2)OCO3)C1Cc1ccc2c(c1)OCO2 (configuration not stated)
T/C [1]: 109 % of control
T/C [2]: 93 % of control
T/C [3]: 99 % of control

Cc1ccc(S(=O)(=O)N2CC3CNC(=O)C(C3)C2)cc1 (configuration not stated)
T/C [4]: 104 % of control
T/C [5]: 101 % of control
T/C [6]: 107 % of control

CCN(CC)CCNc1cccc2oc3ccc(OS(=O)(=O)c4ccc(C)cc4)cc3c(=O)c12
T/C [7]: 97 % of control
T/C [8]: 100 % of control
T/C [9]: 102 % of control

CC1(C)OC2COC3OC(C)(C)OC3(/C=N\NC(=O)c3cc4cc(OCc5ccccc5)ccc4[nH]3)C2O1 (configuration not stated)
T/C [10]: 101 % of control
T/C [11]: 95 % of control
T/C (dose: 200.0 mg/kg/injection, schedule: Q01DX005 (ip), vehicle: Klucel (hydroxypropylcellulose) (HPC)): 97 % of control

C=CCOc1cc2c(cc1OCC=C)C(=O)c1cc3c(cc1C2=O)OCO3
T/C (dose: 7.5 mg/kg/injection, schedule: Q01DX005 (ip), vehicle: saline with Tween-80): 95 % of control
T/C (dose: 15.0 mg/kg/injection, schedule: Q01DX005 (ip), vehicle: saline with Tween-80): 93 % of control

C[N+](C)=c1ccc2nc3c(cc(NCCCNc4cc5oc6cc(=[N+](C)C)ccc-6nc5c5ccccc45)c4ccccc43)oc-2c1
T/C [12]: 106 % of control
T/C [13]: 113 % of control
T/C [14]: 103 % of control

OC1CN(Cc2ccccc2)C[C@@H]1O (some centres not stated)
T/C (dose: 60.0 mg/kg/injection, schedule: Q01DX005 (ip), vehicle: saline): 100 % of control
T/C (dose: 120.0 mg/kg/injection, schedule: Q01DX005 (ip), vehicle: saline): 96 % of control

C=Cc1cc(OC)c2c(c1)c(=O)oc1c2cc(OC)c2c(O)ccc(C3OC(C)C(O)C(C)(O)C3O)c21 (configuration not stated)
T/C (dose: 1.56 mg/kg/injection, schedule: Q01DX005 (ip), vehicle: DMSO): 115 % of control
T/C (dose: 3.12 mg/kg/injection, schedule: Q01DX005 (ip), vehicle: DMSO): 118 % of control
T/C (dose: 12.5 mg/kg/injection, schedule: Q01DX005 (ip), vehicle: DMSO): 150 % of control
T/C (dose: 25.0 mg/kg/injection, schedule: Q01DX005 (ip), vehicle: DMSO): 150 % of control
T/C (dose: 50.0 mg/kg/injection, schedule: Q01DX005 (ip), vehicle: DMSO): 169 % of control

CC(C)CCC1=CC(=O)c2c(O)ccc(O)c2C1=O
T/C (dose: 2.5 mg/kg/injection, schedule: Q04DX002 (ip), vehicle: DMSO): 97 % of control
T/C (dose: 5.0 mg/kg/injection, schedule: Q04DX002 (ip), vehicle: DMSO): 97 % of control
T/C (dose: 10.0 mg/kg/injection, schedule: Q04DX002 (ip), vehicle: DMSO): 95 % of control

COP(=O)(OC)O/C(=C/Cl)c1cc(Cl)cc(Cl)c1Cl
T/C (dose: 100.0 mg/kg/injection, schedule: Q04DX003 (ip), vehicle: Klucel (hydroxypropylcellulose) (HPC)): 102 % of control
T/C (dose: 200.0 mg/kg/injection, schedule: Q04DX003 (ip), vehicle: Klucel (hydroxypropylcellulose) (HPC)): 100 % of control
T/C (dose: 400.0 mg/kg/injection, schedule: Q04DX003 (ip), vehicle: Klucel (hydroxypropylcellulose) (HPC)): 111 % of control

CC1=NN(c2ccccc2)C(=O)C1N=Nc1ccccc1S(=O)(=O)O (configuration not stated)
T/C [1]: 108 % of control
T/C [2]: 109 % of control
T/C [3]: 111 % of control

CCCCOCCOCCOCCOCCCN1C(=O)C2C3C=CC(C3)C2C1=O (configuration not stated)
T/C [10]: 97 % of control
T/C [11]: 100 % of control

NCCc1ccc([N+](=O)[O-])cc1
T/C [1]: 104 % of control and 96 % of control
T/C [2]: 98 % of control and 105 % of control

NC(=O)N/N=C1\CCC2CCCCC2C1 (configuration not stated)
T/C (dose: 25.0 mg/kg/injection, schedule: Q01DX001 (ip), vehicle: Klucel (hydroxypropylcellulose) (HPC)): 107 % of control
T/C (dose: 50.0 mg/kg/injection, schedule: Q01DX001 (ip), vehicle: Klucel (hydroxypropylcellulose) (HPC)): 101 % of control
T/C [4]: 100 % of control

CC(=O)C[n+]1ccccc1Cc1ccccc1
T/C (dose: 25.0 mg/kg/injection, schedule: Q01DX005 (ip), vehicle: saline with Tween-80): 99 % of control
T/C [7]: 100 % of control

O=NN(CCOCCCl)C(=O)NC1CCCCC1
T/C (dose: 6.25 mg/kg/injection, schedule: Q01DX009 (ip), vehicle: water): 100 % of control
T/C (dose: 12.5 mg/kg/injection, schedule: Q01DX009 (ip), vehicle: water): 100 % of control
T/C (dose: 25.0 mg/kg/injection, schedule: Q01DX009 (ip), vehicle: water): 107 % of control
T/C (dose: 200.0 mg/kg/injection, schedule: Q01DX009 (ip), vehicle: water): 152 % of control

C=CCC(C(=O)OC)c1ccc(Cl)cc1 (configuration not stated)
T/C (dose: 0.62 mg/kg/injection, schedule: Q01DX009 (ip), vehicle: saline): 114 % of control
T/C (dose: 1.25 mg/kg/injection, schedule: Q01DX009 (ip), vehicle: saline): 98 % of control
T/C (dose: 2.5 mg/kg/injection, schedule: Q01DX009 (ip), vehicle: saline): 103 % of control

CCOC=C1C(=O)N(C)C(=O)N(C)C1=O
T/C [15]: 106 % of control
T/C [16]: 106 % of control
T/C [17]: 108 % of control

ClCC1CSC(c2ccccc2)O1 (configuration not stated)
T/C [15]: 90 % of control
T/C [16]: 109 % of control
T/C [17]: 101 % of control

CC(C)c1ccc(OC(=O)Nc2c(Cl)cccc2Cl)cc1
T/C [12]: 108 % of control
T/C [13]: 120 % of control
T/C [14]: 115 % of control

CN(C)c1c(-c2ccccc2)nnc(-c2ccccc2)c1-c1ccccc1
T/C [4]: 103 % of control
T/C [5]: 100 % of control
T/C [6]: 101 % of control

CCOC(=O)c1cnc2cc(Cl)ccc2c1N=[N+]=[N-]
T/C [12]: 91 % of control
T/C [13]: 100 % of control
T/C [14]: 99 % of control

O=C(NCCNCCO)c1cccc(Nc2cc(O)c(O)c3ccccc23)c1
T/C [7]: 108 % of control
T/C [8]: 100 % of control
T/C [9]: 97 % of control

c1ccc(C2OCCN2c2ccccc2)cc1 (configuration not stated)
T/C (dose: 12.5 mg/kg/injection, schedule: Q01DX001 (ip), vehicle: saline with Tween-80): 107 % of control
T/C (dose: 25.0 mg/kg/injection, schedule: Q01DX001 (ip), vehicle: saline with Tween-80): 107 % of control
T/C (dose: 50.0 mg/kg/injection, schedule: Q01DX001 (ip), vehicle: saline with Tween-80): 107 % of control
T/C (dose: 100.0 mg/kg/injection, schedule: Q01DX001 (ip), vehicle: saline with Tween-80): 101 % of control

O=C(O)CCN(Cc1ccccc1)Cc1ccccc1
T/C [18]: 100 % of control
T/C [19]: 100 % of control
T/C [20]: 109 % of control

COc1ccc(NC(=S)NC2C(OC(C)=O)OC(COC(C)=O)C(OC(C)=O)C2OC(C)=O)cc1 (configuration not stated)
T/C [7]: 92 % of control
T/C [8]: 92 % of control
T/C [9]: 89 % of control

COc1ccccc1CN1CC(C)N(N=Cc2c3c(O)c4c(O)c(C)c5c(c4c2O)C(=O)C(C)(O/C=C/C(OC)C(C)C(OC(C)=O)C(C)C(O)C(C)C(O)C(C)/C=C/C=C(\C)C(=O)N3)O5)C(C)C1 (configuration not stated)
T/C [15]: 102 % of control
T/C [16]: 107 % of control
T/C [17]: 117 % of control

CCOC(=O)Nc1ccc2nc(-c3cscn3)[nH]c2c1
T/C [1]: 101 % of control
T/C [2]: 112 % of control
T/C [3]: 115 % of control

C=C1C(O)C2OC3(CCC(/C=C/C(C)C4CC5(C)SC5C5(OC(CC(C)(O)C(=O)O)CCC5O)O4)O3)CCC2OC1C(O)CC(C)C1OC2(CCCCO2)CCC1C (configuration not stated)
T/C (dose: 1.87 micrograms/kg/injection, schedule: Q01DX005 (ip), vehicle: saline + alcohol): 102 % of control and 103 % of control
T/C (dose: 3.75 micrograms/kg/injection, schedule: Q01DX005 (ip), vehicle: saline + alcohol): 103 % of control and 120 % of control and 93 % of control
T/C (dose: 7.5 micrograms/kg/injection, schedule: Q01DX005 (ip), vehicle: saline + alcohol): 100 % of control and 103 % of control
T/C (dose: 15.0 micrograms/kg/injection, schedule: Q01DX005 (ip), vehicle: saline + alcohol): 111 % of control

OCC(O)COCCCCCCCCCCCC1C=CCC1 (configuration not stated)
T/C [18]: 99 % of control
T/C [19]: 99 % of control
T/C [20]: 99 % of control
